What was measured:
Settings in all cases: 48 h
[1] = tested on: P12-Ichikawa; assay: cell viability relative to DMSO control; higher = less cytotoxic
Outline: (§1)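 Cells were incubated for 48 h at 37°C before CellTiter-Glo One luminescence was read. The cells were NOMO1 or SEM (500 cells/well) or P12-Ichikawa (1000 cells/well) leukemia cells, adapted for at least four passages in each medium and seeded in 1536-well plates (5 μl). Dosing used library compounds in DMSO applied by pin over 11 threefold points, 47 μM to 0.79 nM. Viability is the per-plate percentage of DMSO wells, with cell-free wells as background.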

[2] = tested on: SEM cells; assay: as above
Outline: as §1

[3] = tested on: NOMO1; assay: as above
Outline: as §1

[4] = tested on: P12-Ichikawa; assay: AUC of viability dose-response curve (% viability x log10 dose units); higher = less sensitive
Outline: (§2)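 In 1536-well plates, leukemia cells adapted to each medium (500 or 1000 cells/well) were exposed for 48 h at 37°C to library compounds in DMSO across 11 threefold doses, 47 μM down to 0.79 nM. Viability was read by CellTiter-Glo One luminescence and normalised per plate to DMSO and cell-free wells. A four-parameter log-logistic fit over log10 doses was integrated by trapezoidal rule. This yielded the area under the curve, with over-full-viability curves scaled and quality-control failures dropped.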

[5] = tested on: SEM cells; assay: as above
Outline: as §2

[6] = tested on: NOMO1; assay: as above
Outline: as §2

Cc1ncc(OC[C@@]2(c3cccc(F)c3)C[C@H]2C(=O)Nc2ccc(F)cn2)c(C)n1
cell viability [%]
Settings	[1]	[2]	[3]
HPLM + 10% dialyzed FBS, 0.000781 µM	104	75.3	108
HPLM + 10% dialyzed FBS, 0.00234 µM	101	84.5	106
HPLM + 10% dialyzed FBS, 0.00702 µM	104	97.6	122
HPLM + 10% dialyzed FBS, 0.0211 µM	104	96	120
HPLM + 10% dialyzed FBS, 0.0632 µM	105	95.3	125
HPLM + 10% dialyzed FBS, 0.19 µM	111	91.7	129
HPLM + 10% dialyzed FBS, 0.569 µM	114	105	117
HPLM + 10% dialyzed FBS, 1.71 µM	102	96	105
HPLM + 10% dialyzed FBS, 5.12 µM	102	98.3	120
HPLM + 10% dialyzed FBS, 15.4 µM	103	98.7	117
HPLM + 10% dialyzed FBS, 46.1 µM	13.4	78.3	108
RPMI 5 mM glucose + 10% FBS, 0.000781 µM	107	113	105
RPMI 5 mM glucose + 10% FBS, 0.00234 µM	107	111	93.8
RPMI 5 mM glucose + 10% FBS, 0.00702 µM	108	102	125
RPMI 5 mM glucose + 10% FBS, 0.0211 µM	112	104	92.7
RPMI 5 mM glucose + 10% FBS, 0.0632 µM	110	103	105
RPMI 5 mM glucose + 10% FBS, 0.19 µM	106	133	113
RPMI 5 mM glucose + 10% FBS, 0.569 µM	106	136	107
RPMI 5 mM glucose + 10% FBS, 1.71 µM	107	51.1	92.2
RPMI 5 mM glucose + 10% FBS, 5.12 µM	107	97.3	102
RPMI 5 mM glucose + 10% FBS, 15.4 µM	106	88.4	101
RPMI 5 mM glucose + 10% FBS, 46.1 µM	97.3	104	116
RPMI 5 mM glucose + 10% dialyzed FBS, 0.000781 µM	111	85.3	102
RPMI 5 mM glucose + 10% dialyzed FBS, 0.00234 µM	108	107	107
RPMI 5 mM glucose + 10% dialyzed FBS, 0.00702 µM	119	98.1	105
RPMI 5 mM glucose + 10% dialyzed FBS, 0.0211 µM	113	90.8	106
RPMI 5 mM glucose + 10% dialyzed FBS, 0.0632 µM	108	100	119
RPMI 5 mM glucose + 10% dialyzed FBS, 0.19 µM	121	104	110
RPMI 5 mM glucose + 10% dialyzed FBS, 0.569 µM	116	108	97
RPMI 5 mM glucose + 10% dialyzed FBS, 1.71 µM	115	118	101
RPMI 5 mM glucose + 10% dialyzed FBS, 5.12 µM	117	122	112
RPMI 5 mM glucose + 10% dialyzed FBS, 15.4 µM	106	108	110
RPMI 5 mM glucose + 10% dialyzed FBS, 46.1 µM	96.2	82.6	116

AUC of viability dose-response curve
Settings	[4]	[5]	[6]
HPLM + 10% dialyzed FBS	455	444	476
RPMI 5 mM glucose + 10% FBS	474	435	474
RPMI 5 mM glucose + 10% dialyzed FBS	470	452	464

CC(=O)CC(C1=CC=CC=C1)C/2=C(O)/C3=CC=CC=C3OC2=O (stereo not given)
cell viability [%]
Settings	[1]	[2]	[3]
HPLM + 10% dialyzed FBS, 0.000781 µM	106	80.7	96.8
HPLM + 10% dialyzed FBS, 0.00234 µM	112	101	126
HPLM + 10% dialyzed FBS, 0.00702 µM	108	114	111
HPLM + 10% dialyzed FBS, 0.0211 µM	117	71.7	129
HPLM + 10% dialyzed FBS, 0.0632 µM	111	119	124
HPLM + 10% dialyzed FBS, 0.19 µM	125	114	132
HPLM + 10% dialyzed FBS, 0.569 µM	123	103	132
HPLM + 10% dialyzed FBS, 1.71 µM	120	110	128
HPLM + 10% dialyzed FBS, 5.12 µM	113	116	147
HPLM + 10% dialyzed FBS, 15.4 µM	118	113	143
HPLM + 10% dialyzed FBS, 46.1 µM	123	120	155
RPMI 5 mM glucose + 10% FBS, 0.000781 µM	105	110	–
RPMI 5 mM glucose + 10% FBS, 0.00234 µM	120	104	–
RPMI 5 mM glucose + 10% FBS, 0.00702 µM	130	105	–
RPMI 5 mM glucose + 10% FBS, 0.0211 µM	128	73.1	–
RPMI 5 mM glucose + 10% FBS, 0.0632 µM	130	105	–
RPMI 5 mM glucose + 10% FBS, 0.19 µM	132	105	–
RPMI 5 mM glucose + 10% FBS, 0.569 µM	132	115	–
RPMI 5 mM glucose + 10% FBS, 1.71 µM	127	118	–
RPMI 5 mM glucose + 10% FBS, 5.12 µM	128	115	–
RPMI 5 mM glucose + 10% FBS, 15.4 µM	132	125	–
RPMI 5 mM glucose + 10% FBS, 46.1 µM	124	137	–
RPMI 5 mM glucose + 10% dialyzed FBS, 0.000781 µM	106	84.4	109
RPMI 5 mM glucose + 10% dialyzed FBS, 0.00234 µM	122	103	116
RPMI 5 mM glucose + 10% dialyzed FBS, 0.00702 µM	116	114	128
RPMI 5 mM glucose + 10% dialyzed FBS, 0.0211 µM	125	73.4	123
RPMI 5 mM glucose + 10% dialyzed FBS, 0.0632 µM	128	111	120
RPMI 5 mM glucose + 10% dialyzed FBS, 0.19 µM	127	123	126
RPMI 5 mM glucose + 10% dialyzed FBS, 0.569 µM	125	119	127
RPMI 5 mM glucose + 10% dialyzed FBS, 1.71 µM	121	125	121
RPMI 5 mM glucose + 10% dialyzed FBS, 5.12 µM	132	128	124
RPMI 5 mM glucose + 10% dialyzed FBS, 15.4 µM	132	126	127
RPMI 5 mM glucose + 10% dialyzed FBS, 46.1 µM	129	123	129

AUC of viability dose-response curve
Settings	[4]	[5]	[6]
HPLM + 10% dialyzed FBS	462	433	408
RPMI 5 mM glucose + 10% FBS	469	403	447
RPMI 5 mM glucose + 10% dialyzed FBS	465	431	471
